Assay: gradient 5% acetonitrile 3 min, to 50% in 2 min, to 85% in 15 min, held 3 min, 100 µL/min
Settings: column: Zorbax Extend-C18 2.1 x 50 mm; eluents: water / acetonitrile, 0.1% formic acid
Procedure, shortened: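 Pure standards were analyzed in mixtures of ~100 molecules using HPLC coupled to a quadrupole time-of-flight mass spectrometer, in both positive and negative ionization mode. Separation used a Zorbax Extend-C18 column (2.1 × 50 mm, 1.8 μm) at 100 μL/min, with water and acetonitrile each containing 0.1% formic acid. Dead and dwell volumes were 40 μL and 900 μL, and data were collected over 3 months. Retention time was read from computationally picked adduct peaks, each inspected manually.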

SMILES	RP-LC retention time
COc1cc(CN(CC2CCCO2)C(=O)c2oc3ccccc3c2C)cc(OC)c1OC (centres undefined)	1030 s
Cc1nc(CCNS(=O)(=O)Cc2cccc(Cl)c2)no1	792 s
CCc1cccc(C)c1Nc1c(-c2cc(Br)ccc2O)nc2ncccn12	1090 s
CC1=C(c2ccc(C(C)C)cc2)S(=O)(=O)N=C1N1CCC(NC(=O)CCC(C)C)CC1	1020 s
Cc1ccccc1-c1nc(C2CCN(S(=O)(=O)c3ccc(C(C)C)cc3)CC2)no1	1340 s
NC(=O)c1cc2cc(Br)ccc2[nH]1	719 s
O=C(Nc1ccccc1F)Nc1c(-c2ccccc2)nc2ccccn12	666 s
COc1cc(C2C(C(=O)N3CCCCC3)=C(C)NC3=C2C(=O)CC(C)(C)C3)cc(OC)c1O (centres undefined)	1050 s
CCN1C(=O)COc2ccc(-c3noc(C(C)NC(=O)c4ccccc4)n3)cc21 (centres undefined)	856 s
O=C(CC1CCN(C(=O)c2cc(F)ccc2F)C1)NC1CC1 (centres undefined)	630 s
Cc1ccc(-c2nnc(Cc3nc(-c4ccccc4)no3)o2)cc1F	1050 s
COc1cccc(N2CC(C)Cn3c2nc2c3c(=O)n(Cc3c(F)cccc3Cl)c(=O)n2C)c1 (centres undefined)	1080 s
Cc1noc(-c2cccc(OC3CN(C(=O)NCC(C)C)C3)c2)n1	808 s
CCc1cccc(C)c1Nc1c(-c2ccc(O)c(OC)c2)nc2nc(C)cc(C)n12	710 s
CCn1ccc(NC(=O)Nc2cc(C)ccc2C)n1	869 s
Cc1cc(Cl)ccc1OCc1nc(-c2cccc(-c3ccn[nH]3)c2)no1	1090 s
Cc1ccc(S(=O)(=O)c2cnc3ccc(F)cc3c2N2CCOCC2)cc1C	892 s
CC(C)(C)CC(=O)N1C[C@H]2C[C@H](C1)[C@H]1CCCC(=O)N1C2	654 s
COC1=C(OC)C(=O)c2ccccc2C1=O	878 s

SMILES	RP-LC retention time
O=C(NCc1csc(C2CCCN(C(=O)C3CCCC3)C2)n1)C1CC1 (centres undefined)	671 s
O=C(COc1ccccc1F)Nc1nnc(-c2ccsc2)o1	701 s
Cc1nc2cc(N3CC(C(=O)Nc4ccc(Br)c(C)c4)CC3=O)ccc2o1 (centres undefined)	846 s
Cc1nc2cc(-c3noc(C(C)NC(=O)c4ccccc4)n3)ccc2o1 (centres undefined)	811 s
Cc1ccc(NC(=O)Cn2cnc3nc(N4CCCC(C(=O)NC(C)C)C4)sc3c2=O)c(F)c1 (centres undefined)	701 s
CCc1c(C(=O)O)nnn1-c1ccc(C)c(F)c1	744 s
Cc1cc(N2CCCC2)n2nc(CN3CCN(c4ccc(F)cc4)CC3)nc2n1	634 s
CC(=O)N1C[C@@H](C(=O)NCc2cccs2)[C@H](c2nc(C)no2)C1	630 s
CCCn1c(=O)sc2cc(S(=O)(=O)N3CCC(C(=O)N4CCOCC4)CC3)ccc21	770 s
COc1ccc(-c2noc(-c3nc(C)no3)n2)cc1	920 s
O=C(CCc1nnn2c1CN(C(=O)c1ccccc1F)CC2)NC1CC1	615 s
Cc1ccc(NC(=O)CNS(=O)(=O)c2cc(-c3noc(C)n3)sc2C)nc1	730 s
O=C1CC(c2cccs2)Cc2nc(N3CCN(c4ccccn4)CC3)ncc21 (centres undefined)	674 s
CCC1(c2ccccc2)NC(=O)N(C)C1=O (centres undefined)	794 s
Cc1noc(C2CCCCN2CC(=O)Nc2nccs2)n1 (centres undefined)	675 s
COc1cc(C(=O)N2CCN(c3cc(=O)n(C(C)C)c(=O)n3C(C)C)CC2)cc(OC)c1OC	800 s
Cc1ccc(CN2CCn3c(nn(C)c3=O)C2)cc1C	662 s
Cc1ccc(C)c(C(=O)N2CCc3c(c(-c4nc(C5CC5)no4)nn3C)C2)c1	854 s

The next lines start with the values.

RP-LC retention time	SMILES
847 s	CCn1c(C)c(CCC(=O)Nc2ccccc2)c(=O)n2nc(-c3ccccc3)nc12
831 s	CCOc1cc(C(=O)Nc2cc(-c3cn4cccnc4n3)ccc2OC)cc(OCC)c1OCC
1040 s	CCn1cc(C(=O)Nc2ccc(F)c(C)c2)c(S(=O)(=O)N2CCSCC2)n1
613 s	O=C(CNC(=O)c1cccc(F)c1)Nc1nc2ccccc2[nH]1
659 s	CN1CCC2(CC1)CN(C(=O)Nc1ccccc1)CC2c1nc(-c2ccccc2)no1 (centres undefined)
1040 s	COCCNC(=O)c1cc2occc2c(Nc2ccc(Br)c(C)c2)n1
1110 s	CC(NC(=O)c1ccco1)c1nc(-c2ccc(N3CCCCCC3)cc2)no1 (centres undefined)
858 s	COC(=O)c1ccc(N2C=C(C#N)S(=O)(=O)c3c(F)cccc32)cc1
825 s	Cc1noc(C)c1CNC(=O)c1ccc(OC(F)(F)F)cc1
734 s	CCOc1ccccc1C1CC(=O)NC(SCC(=O)Nc2nccs2)=C1C#N (centres undefined)
804 s	CCc1cccc(C)c1NC(=O)CN1C(=O)NC2(CCCCC2)C1=O
882 s	Cc1ccc(CNC(=O)Cn2cccc2-c2nnc(-c3ccccc3)o2)o1
677 s	Cc1ccc(CNC(=O)N2CCN(C(=O)N3C[C@H]4C[C@@H](C3)[C@H]3CCCC(=O)N3C4)CC2)cc1
1130 s	COc1ccc(N2CCN(c3cc(SCC(=O)Nc4cc(Cl)ccc4C)ncn3)CC2)cc1
921 s	Cc1sc(NC(=O)C2CCCCC2)nc1-c1ccc2c(c1)NC(=O)CO2
877 s	Cc1ccc(N2N=C(C(=O)NCC3CCCO3)S(=O)(=O)c3cc(F)ccc32)cc1 (centres undefined)
764 s	CCn1c(CCc2ccccc2NS(=O)(=O)c2cc(F)ccc2F)nc2ccccc21
670 s	CN1CCCN(c2ccc(NC(=O)c3ccc(Br)cc3)c(C(=O)O)c2)CC1
1180 s	O=C(NCc1cc(F)cc(F)c1)c1c(O)c2cccnc2n(-c2ccc(F)cc2)c1=O
725 s	Cc1ccc(CNS(=O)(=O)c2cc(-c3[nH]ncc3C(=O)N3CCCC3)oc2C)cc1
630 s	Cc1ccccc1OCC(=O)N1CCN(c2cc(C)n3c(C)nnc3n2)CC1
1040 s	O=C(Nc1ccc(Br)cc1)N(c1ccccc1)c1ccccc1
751 s	COc1cc(NC(=O)NCCc2nc3cccnc3n2C2CCCCC2)cc(OC)c1
747 s	CN1C(=O)c2cc(C(=O)NCc3cccc(F)c3)nn2CC1(C)C(=O)NCc1ccccc1 (centres undefined)
922 s	O=C(COc1ccccc1)N1CCN(C(=O)c2nnn3c2COC(c2ccc(Cl)cc2)C3)CC1 (centres undefined)
967 s	Cc1ccc(CNC(=O)C2(C)CCCN(C(=O)Nc3cccc(F)c3)C2)cc1 (centres undefined)

RP-LC retention time	SMILES
719 s	COc1ccc(CNC(=O)c2ccc3c(c2)NC(=O)C2CCCCN32)cc1OC (centres undefined)
716 s	CCCS(=O)(=O)N1CCc2ccc(NC(=O)c3ccno3)cc2C1
1090 s	CCCn1cc(C(=O)NCCCOCC)c(S(=O)(=O)N2CCN(c3ccccc3Cl)CC2)n1
737 s	COc1cccc(CNC(=O)C2CCCN(c3nn4c(=O)c5c(nc4s3)CCCC5)C2)c1 (centres undefined)
836 s	Cc1cccc(C(=O)N2CCc3cc(CNS(=O)(=O)c4ccc5c(c4)CC(=O)N5C)ccc32)c1
532 s	CN(C)c1ccc(NC(=O)c2ccco2)cc1
610 s	COC(=O)c1cccc(NC(=O)NC(C(=O)N2CCc3ccccc32)C(C)C)c1 (centres undefined)
760 s	Cn1nc(CNC(=O)c2ccc3c(c2)OCO3)c2ccccc21
791 s	O=C(NCc1cc(F)cc(F)c1)C1CCN(c2ccc(SCc3ccccc3)nn2)CC1
700 s	CN(C)C(=O)c1ccc2c(c1)CCN2C(=O)C1CCC1
637 s	COc1ccc(-c2cn3c(CCC(=O)NCc4ccco4)csc3n2)cc1
608 s	O=C(Cn1cnc2ccccc21)N1CCC(COCc2ccccc2)CC1
613 s	CCOc1cc(=O)c(C(N)=O)nn1-c1ccc(C)cc1
765 s	Cc1ccn2c(NC(=O)c3ccc4ccccc4c3)c(-c3ccc(F)cc3)nc2c1
849 s	COc1cccc(-c2noc(C3CCCN3C(=O)Nc3cc(OC)ccc3OC)n2)c1 (centres undefined)
594 s	COc1ccc(-c2nnc(N3CCC(C(=O)NCCN(C)C)CC3)o2)cc1
816 s	COc1ccc(C2(C(=O)Nc3cc(-c4cccnc4)no3)CC2)cc1
857 s	CCS(=O)(=O)N1CC(=O)N(c2ccc(C)cc2C)C(C)(C(=O)NCc2ccc(F)cc2)C1 (centres undefined)
782 s	Cc1ccc2c(c1)N(C(=O)Cn1cnc3nc4c(cc3c1=O)CCCC4)CCO2
870 s	Cc1cc(C)n(Cc2nc(-c3ccc(NC(=O)c4ccc(C#N)cc4)cc3)oc2C)n1
937 s	CC(=O)Nc1ccc(NC(=O)Cn2cccc(-c3nc(-c4ccc(Cl)cc4)no3)c2=O)cc1
744 s	CCN1C(=O)C(C)(C(=O)NCc2cccc(C)c2)Oc2cccnc21 (centres undefined)
770 s	O=C(COc1ccccc1F)Nc1ccc2c(c1)CN(C(=O)c1ccco1)CC2
866 s	CCOc1ccc(CNC(=O)C2(c3ccc(NC(C)=O)cc3)CCCCC2)cc1
833 s	CC(C)Sc1ccc(CC(=O)NCC2CCN(C(=O)c3ccccc3F)CC2)cc1
607 s	O=C(c1ccc(-c2ccc(N3CCCCC3)nc2)cc1)N1CCOCC1
